Read-outs that look alike come from different tables or passages of the source. Blank lines part the entries; values can stand above or below the compound they belong to.
Key:
[1] = tested on: scopolamine-induced cognitive deficits in mice; test: Y-maze task, scopolamine-induced cognitive deficits; format: in vivo, mouse; conditions: for scopolamine-induced cognitive deficits in Y-maze task: 5-min measurement
Procedure: The Y-maze apparatus has a three-arm maze with equal angles between all arms and made of black colored acrylic. Each arm consisted of 40 cm length, 4 cm width, and 12 cm walls. The Y-maze was located in a sound-attenuated room and illuminated at 10 lux. Compound B (10 or 30 mg/kg) and Compound A (1, 3 or 10 mg/kg) were pretreated orally at 60 min prior to the testing. After 30 min, memory impairment was induced by administering scopolamine (0.3 or 1 mg/kg, as hydrobromide salt, s.c.). At 30 min after the administration of scopolamine, mice were placed in the Y-maze and then spontaneous alternation performance was assessed visually for 5 to 8 min. Each animal underwent one trial. A mouse was considered to have entered an arm when all four paws were positioned in one third of the arm runway from the center of the Y maze. Alternations were defined as successive entries into each of the three arms on overlapping triplet sets, and alternation rate, expressed as a percentage, referred to the ratio of actual (total alternations) to possible alternations (total arm entries−2)×100.

[2] = Plasma and brain concentration in samples of in vivo IP1 assay; parameters: species or system mouse; conditions: for concentration at 3 h: mouse, oral, mean±SD
Procedure: Plasma and brain concentration of Compound D in sample of in vivo IP1 assay at 3 h after oral treatment. Results represent the mean±SD. n=10 per group.
Plasma and brain concentration of Compound C in sample of in vivo IP1 assay at 3 h after oral treatment. Results represent the mean±SD. n=10 per group.

[3] = tested on: scopolamine-induced cognitive deficits in rats; test: Novel object recognition task (NORT), scopolamine-induced memory deficits; format: in vivo, rat; conditions: for minimal efficacy dose in rats (cognitive improvement): NORT, p.o.; for minimal efficacy dose in rats (cognitive improvement) / NDI: scopolamine-treated rats
Procedure: On the day before testing, Long Evans rats were allowed to habituate to the behavioral test room environment for over 1 h, and then they were allowed to habituate to the empty test box (a gray-colored polyvinyl chloride box (40×40×50 cm)) for 10 min individually. Testing was comprised of two 3-min trials called the acquisition and the retention trials. These trials were separated by a given inter-trial interval (ITI). On the testing day, in the acquisition trial, rats were allowed to explore two identical objects (A1 and A2) for 3 min. In the retention trial, rats were again allowed to explore a familiar object (A3) and a novel object (B) for 3 min. The object exploration was defined as rats' licking, sniffing or touching the object with limbs while sniffing. Leaning against the object to look upward, standing or sitting on the object was excluded. The exploration time of each object (A1, A2, A3 and B) in each trial was measured manually. Novel discrimination index (NDI) was calculated using the following equation: novel object interaction/total interaction×100(%).
The acquisition and the retention trials were separated by 4 h ITI. […] Scopolamine (0.1 mg/kg) was administered subcutaneously 30 min prior to the acquisition trial.
(§1) The acquisition and the retention trials were separated by 4 h ITI.
as §1

human M1R = target: T1, human M1R (Homo sapiens, UniProt P11229); test: Ca2+ flux assay in CHO-K1 cells expressing human M1 receptors (EC20 ACh); format: cell-based; parameters: expressed in transfected cells; conditions: for EC50: potentiating EC20 ACh, read-out: IP value for human M1R
T1 sequence (P11229 1-460): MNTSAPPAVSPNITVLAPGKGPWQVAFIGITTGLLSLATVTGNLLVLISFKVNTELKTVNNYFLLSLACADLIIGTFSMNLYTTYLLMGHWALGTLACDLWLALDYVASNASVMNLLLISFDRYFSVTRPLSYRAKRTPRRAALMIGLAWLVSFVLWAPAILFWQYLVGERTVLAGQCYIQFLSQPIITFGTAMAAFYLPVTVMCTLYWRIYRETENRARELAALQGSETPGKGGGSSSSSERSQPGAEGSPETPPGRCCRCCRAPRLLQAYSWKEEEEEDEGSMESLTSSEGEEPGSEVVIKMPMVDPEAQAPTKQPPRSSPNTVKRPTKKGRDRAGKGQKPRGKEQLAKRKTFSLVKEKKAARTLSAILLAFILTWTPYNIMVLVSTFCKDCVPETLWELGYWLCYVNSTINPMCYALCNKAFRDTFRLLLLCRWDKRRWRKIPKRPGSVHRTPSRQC
Procedure: CHO-K1 cells expressing human M1 receptors were plated on a 96-well black clear bottom plate (Corning, New York, NY) at 30,000 cells/well, and cultured at 37° C. and 5% CO2 for 1 day. The medium was removed and the cells were incubated with calcium dye buffer (HBSS (Life Technologies, Carlsbad, CA), 20 mM HEPES (Life Technologies), 0.1% fatty acid-free BSA (Wako), 0.08% pluronic F127 (Dojindo Laboratories, Kumamoto, Japan), 2.5 μg/mL Fluo-4 (Dojindo Laboratories), 1.25 mM probenecid (Dojindo Laboratories)) for 30 min at 37° C. and 5% CO2. After 30 min incubation at room temperature, the cells were stimulated with various concentrations of test compounds dissolved in assay buffer (HBSS (Life Technologies), 20 mM HEPES (Life Technologies), 0.1% fatty acid-free BSA (Wako)) containing EC20 concentrations (0.8-1 nM) of ACh and Ca^2+ response was measured using CeilLux (PerkinElmer). For determination of positive allosteric modulation activity of M1PAMs, the response to EC20 ACh was set as the 0% response and the response to 10 μM ACh was set as the 100% response. The potency of M1PAMs was shown as the value of inflection point (IP). IP value and 95% confidence intervals were calculated by XLfit of GraphPad Prism 5 Software (GraphPad Software Inc., LaJolla, CA, USA) from the data expressed as % of control.

Structure (SMILES): Cn1ccc(-c2ccc(CN3Cc4cccc(O[C@H]5CCCC[C@@H]5O)c4C3=O)cc2)n1 [Compound A, 7-(((1S,2S)-2-hydroxycyclohexyl)oxy)-2-(4-(1-methyl-1H-pyrazol-3-yl)benzyl)isoindolin-1-one]
- scopolamine-induced cognitive deficits in Y-maze task ([1]; 10 mg/kg p.o.): trends to improve
- scopolamine-induced decrease in spontaneous alternation ratio in Y-maze task ([1]; 10 mg/kg p.o., 8 min measurement): significantly ameliorated

Structure (SMILES): Cn1cc(-c2ccc(CN3Cc4cccc(Oc5c(F)cccc5C#N)c4C3=O)cc2)cn1 [Compound B, 3-fluoro-2-((2-(4-(1-methyl-1H-pyrazol-4-yl)benzyl)-3-oxo-2,3-dihydro-1H-isoindol-4-yl)oxy)benzonitrile]
- scopolamine-induced cognitive deficits in Y-maze task ([1]; 30 mg/kg p.o.): significantly ameliorated

Structure (SMILES): Cn1cc(-c2ccc(Cc3cc4c(=O)n([C@H]5CCCC[C@@H]5O)cnc4c4ccccc34)cn2)cn1 [Compound C, 3-((1S,2S)-2-hydroxycyclohexyl)-6-((6-(1-methyl-1H-pyrazol-4-yl)pyridin-3-yl)methyl)benzo[h]quinazoline-4(3H)-one, reference compound]
- differences in brain concentration between wild-type and M1R KO mice ([2]; 10 mg/kg p.o.): No significant differences
- concentration at 3 h ([2]; brain, 10 mg/kg, 10 mg/kg p.o., M1KO mice, read-out: Brain concentration): 62.7 ± 9.1 ng/g
- concentration at 3 h ([2]; brain, 10 mg/kg, 10 mg/kg p.o., wild-type mice, read-out: Brain concentration): 63.7 ± 16.8 ng/g
- concentration at 3 h ([2]; plasma, 10 mg/kg, 10 mg/kg p.o., M1KO mice, read-out: Plasma concentration): 6130 ± 1160 ng/mL
- concentration at 3 h ([2]; plasma, 10 mg/kg, 10 mg/kg p.o., wild-type mice, read-out: Plasma concentration): 2340 ± 628 ng/mL
- scopolamine-induced cognitive deficits in NORT ([3]; 0.1 and 0.3 mg/kg p.o., rats, P≤0.025): significantly ameliorated scopolamine-induced cognitive deficits
- minimal efficacy dose in rats (cognitive improvement) [3]: 0.1 mg/kg
- NDI ([3]; Compound C 0.03 mg/kg p.o. alone, Example 29): 52.3%
- EC50 (human M1R): 0.62 nM

- differences in PK profile between wild-type and M1R KO mice ([2]; 3 mg/kg p.o.): No significant differences
- concentration at 3 h ([2]; brain, 3 mg/kg, 3 mg/kg p.o., M1KO mice, read-out: Brain concentration): 370 ± 50 ng/g
- concentration at 3 h ([2]; brain, 3 mg/kg, 3 mg/kg p.o., wild-type mice, read-out: Brain concentration): 350 ± 80 ng/g
- concentration at 3 h ([2]; plasma, 3 mg/kg, 3 mg/kg p.o., M1KO mice, read-out: Plasma concentration): 3260 ± 260 ng/mL
- concentration at 3 h ([2]; plasma, 3 mg/kg, 3 mg/kg p.o., wild-type mice, read-out: Plasma concentration): 3110 ± 490 ng/mL
- EC50 (human M1R): 2.7 nM
- M1R selectivity over other human muscarinic receptor subtypes (human M1R; vs M2-M5R): not less than 3700 fold
Structure (SMILES): Cc1c(Cc2ccc(-n3cccn3)cc2)cc2c(c1F)CN([C@H]1COCC[C@@H]1O)C2=O [Compound D, 4-fluoro-2-[(3S,4S)-4-hydroxytetrahydro-2H-pyran-3-yl]-5-methyl-6-[4-(1H-pyrazol-1-yl)benzyl]-2,3-dihydro-1H-isoindol-1-one]
- NDI in NORT, scopolamine-induced deficits ([3]; 0.3, 1, and 3 mg/kg p.o., rats, P≤0.025): significantly increased NDI
- minimal efficacy dose in rats (cognitive improvement) [3]: 0.3 mg/kg
- NDI ([3]; 0.1 mg/kg p.o. alone, Example 28): 54.1%
- NDI ([3]; Compound D 0.1 mg/kg p.o. alone, Example 31): 56.8%

Reference: US12298319B2, “Method for measuring alpha value of muscarinic M1 receptor positive allosteric modulators” (Takeda Pharmaceutical Company Limited, priority 2017, dated 2025)
